Assay results: PubChem BioAssay (NCI)
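Assay format: 96-well plates, 48-hour exposure. TGI: concentration producing complete growth inhibition.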

Experiments:
Experiment in all cases: inhibition of tumour cell growth, NCI panel, 48 h
MDA-N = system: MDA-N
ACHN renal = system: ACHN renal
SF-539 CNS = system: SF-539 CNS
HS 578T breast = system: HS 578T breast
T-47D breast = system: T-47D breast
UO-31 renal = system: UO-31 renal
NCI-H23 lung = system: NCI-H23 lung
SK-OV-3 ovarian = system: SK-OV-3 ovarian
SN12C renal = system: SN12C renal
HOP-62 NSCLC = system: HOP-62 NSCLC
RPMI-8226 leukemia = system: RPMI-8226 leukemia
SF-295 CNS = system: SF-295 CNS
BT-549 breast = system: BT-549 breast
OVCAR-8 ovarian = system: OVCAR-8 ovarian
NCI-H522 lung = system: NCI-H522 lung
M14 melanoma = system: M14 melanoma
OVCAR-5 ovarian = system: OVCAR-5 ovarian
UACC-257 melanoma = system: UACC-257 melanoma
A549 NSCLC = system: A549 NSCLC
SNB-75 CNS = system: SNB-75 CNS
CAKI-1 renal = system: CAKI-1 renal
A498 renal = system: A498 renal
NCI-H226 lung = system: NCI-H226 lung
OVCAR-4 ovarian = system: OVCAR-4 ovarian
EKVX NSCLC = system: EKVX NSCLC
MDA-MB-231 breast = system: MDA-MB-231 breast
KM12 colon = system: KM12 colon
SK-MEL-2 melanoma = system: SK-MEL-2 melanoma
RXF 393 renal = system: RXF 393 renal
SW-620 colon = system: SW-620 colon
HCT-15 colon = system: HCT-15 colon
SK-MEL-28 melanoma = system: SK-MEL-28 melanoma
UACC-62 melanoma = system: UACC-62 melanoma
NCI-H460 lung = system: NCI-H460 lung
COLO 205 colon = system: COLO 205 colon
HT29 colon = system: HT29 colon
TK-10 renal = system: TK-10 renal
MCF7 breast = system: MCF7 breast
LOX IMVI melanoma = system: LOX IMVI melanoma
IGROV1 ovarian = system: IGROV1 ovarian
786-0 renal = system: 786-0 renal
HOP-92 NSCLC = system: HOP-92 NSCLC
NCI/ADR-RES ovarian = system: NCI/ADR-RES ovarian
SNB-19 CNS = system: SNB-19 CNS
SF-268 CNS = system: SF-268 CNS
OVCAR-3 ovarian = system: OVCAR-3 ovarian
HCT-116 colon = system: HCT-116 colon
U251 CNS = system: U251 CNS
MDA-MB-435 = system: MDA-MB-435
PC-3 prostate = system: PC-3 prostate
SK-MEL-5 melanoma = system: SK-MEL-5 melanoma
K-562 leukemia = system: K-562 leukemia
DU-145 prostate = system: DU-145 prostate
HCC-2998 colon = system: HCC-2998 colon
SR leukemia = system: SR leukemia
CCRF-CEM leukemia = system: CCRF-CEM leukemia
MOLT-4 leukemia = system: MOLT-4 leukemia
MALME-3M melanoma = system: MALME-3M melanoma
HL-60(TB) leukemia = system: HL-60(TB) leukemia

Measured: TGI

C1CCSCCCCSCCCCSCCCCSC1
not listed: SR leukemia | CCRF-CEM leukemia | MOLT-4 leukemia | MALME-3M melanoma | HL-60(TB) leukemia
> 100 µM: all other assays above

C=C(C)CCC(=O)[C@](C)(O)[C@H]1[C@H](O)C[C@@]2(C)[C@@H]3CCc4c(cc(OC5OC(CO)C(O)C(O)C5O)c(O)c4C)C3(C)C(=O)C[C@]12C (stereo not given in full)
not listed: HS 578T breast | RPMI-8226 leukemia | HL-60(TB) leukemia
> 100 µM: all other assays above

COc1cc(C2c3cc4c(cc3OC(NN=C(C)C)C2C)OCO4)cc(OC)c1O (stereo not given)
55.9 µM: SK-MEL-2 melanoma
16.5 µM: SR leukemia
48.5 µM: SNB-75 CNS
56.1 µM: SF-539 CNS
11.6 µM: MDA-N
38.1 µM: SK-MEL-5 melanoma
25.3 µM: NCI-H522 lung
31.2 µM: RPMI-8226 leukemia
31.6 µM: HCC-2998 colon
not listed: ACHN renal | HS 578T breast | SK-OV-3 ovarian | HOP-62 NSCLC | A498 renal | EKVX NSCLC | NCI-H460 lung | LOX IMVI melanoma | MDA-MB-435 | K-562 leukemia | CCRF-CEM leukemia | MOLT-4 leukemia | HL-60(TB) leukemia
> 100 µM: all other assays above

CC(CC(C#N)(c1ccccc1)c1ccccc1)N1CCCCC1 (stereo not given)
46.7 µM: MDA-N
80.3 µM: 786-0 renal
49.2 µM: KM12 colon
46.6 µM: CCRF-CEM leukemia
49.4 µM: MDA-MB-435
79.9 µM: HS 578T breast
31.7 µM: NCI-H460 lung
33.6 µM: SK-MEL-5 melanoma
32.9 µM: COLO 205 colon
79.6 µM: UO-31 renal
49.3 µM: MOLT-4 leukemia
39.1 µM: M14 melanoma
88.4 µM: HOP-62 NSCLC
67 µM: SK-MEL-28 melanoma
29.1 µM: HCC-2998 colon
42.3 µM: HL-60(TB) leukemia
35.6 µM: MALME-3M melanoma
63.8 µM: MDA-MB-231 breast
74.5 µM: SN12C renal
68.6 µM: HCT-15 colon
44.5 µM: OVCAR-3 ovarian
85.1 µM: A498 renal
59.1 µM: UACC-62 melanoma
45.5 µM: K-562 leukemia
29.6 µM: UACC-257 melanoma
36.7 µM: NCI-H522 lung
51 µM: HT29 colon
40.7 µM: RPMI-8226 leukemia
65.8 µM: SF-295 CNS
49.5 µM: SW-620 colon
46.5 µM: TK-10 renal
56.3 µM: EKVX NSCLC
46.4 µM: NCI-H226 lung | SK-MEL-2 melanoma
74.7 µM: MCF7 breast
57.7 µM: HCT-116 colon
33.5 µM: LOX IMVI melanoma
not listed: SF-539 CNS | SR leukemia
> 100 µM: all other assays above

COc1cc2c(cc1OC)C1c3ccccc3CCN1CC2 (stereo not given)
75.1 µM: SF-539 CNS
80.3 µM: HL-60(TB) leukemia
96.1 µM: NCI-H226 lung
not listed: UO-31 renal | RPMI-8226 leukemia | BT-549 breast
> 100 µM: all other assays above

O=C1CCC(=Nc2ccc(Cl)cc2)N1C(=O)COc1ccc(OCC(=O)N2C(=O)CSC2=Nc2ccc(Cl)cc2)cc1
91.9 µM: SNB-75 CNS
not listed: SF-539 CNS | SR leukemia | CCRF-CEM leukemia | MOLT-4 leukemia
> 100 µM: all other assays above

CCCCOC(C)(C)/C=C/C(O)[C@](C)(O)[C@H]1[C@H](O)C[C@@]2(C)[C@@H]3CCc4c(cc(OC5OC(CO)C(O)C(O)C5O)c(O)c4C)C3(C)C(=O)C[C@]12C (stereo not given in full)
not listed: HS 578T breast | RPMI-8226 leukemia | HL-60(TB) leukemia
> 100 µM: all other assays above
